System in the first data set: not given
Assay: not given
Conditions: not given
The molecule `COCCNc1nc(-c2ccco2)c2scc(Br)c2n1` [Example 71] yielded a melting point of 65 to 65.4 °C.

Take `OCCNc1nc(-c2ccco2)c2scc(Br)c2n1` [Example 15, 7-bromo-4-(2-furyl)-N-(2-hydroxyethyl)thieno[3,2-d]pyrimidine-2-amine]: the melting point is 173.4 to 174.4 °C.

Regarding `CN(C)c1nc(-c2ccco2)c2scc([N+](=O)[O-])c2n1` [Example 44, N,N-dimethyl-4-(2-furyl)-7-nitrothieno[3,2-d]pyrimidine-2-amine], the melting point was 182.8 to 183.8 °C.

`Clc1nc(-c2cnccn2)c2sccc2n1` [Example 30, 2-chloro-4-(2-pyrazinyl)thieno[3,2-d]pyrimidine]: the melting point lay in the range of 183.2 to 183.8 °C.

In turn, `OC[C@H]1CCCN1c1nc(-c2ccco2)c2sccc2n1` [Example 38, (2R)-4-(2-furyl)-2-(2-hydroxymethylpyrrolidin-1-yl)thieno[3,2-d]pyrimidine] gave a melting point of 109 to 110 °C.

With `C=CCNc1nc(-c2ccco2)c2sccc2n1` [Example 40, N-allyl-4-(2-furyl)thieno[3,2-d]pyrimidine-2-amine], the melting point fell in the range of 101 to 102 °C.

As for `CCc1nc(-c2ncc(-c3ccccc3)o2)c2sccc2n1` [Example 106, 2-ethyl-4-(5-phenyl-2-oxazolyl)thieno[3,2-d]pyrimidine], the melting point was in the range of 170 to 170.5 °C.

Consider `Cn1nccc1-c1nc(Cl)nc2ccsc12` [Example 182, 2-chloro-4-(1-methyl-1H-pyrazol-5-yl)thieno[3,2-d]pyrimidine], for which the melting point lay in the range of 141 to 142 °C.

The molecule `c1coc(-c2nc(Cc3cccs3)nc3ccsc23)c1` [Example 117, 4-(2-furyl)-2-(2-thienylmethyl)thieno[3,2-d]pyrimidine] returned a melting point of 149 °C.

`CCc1nc(-c2ccco2)c2sc(C)cc2n1` [Example 188, 2-ethyl-4-(2-furyl)-6-methylthieno[3,2-d]pyrimidine] gave a melting point of 104.7 to 104.8 °C.

For `CN(C)c1nc(-c2cnn(COCC[Si](C)(C)C)c2)c2sccc2n1`, the melting point is 60 to 61 °C.

On to `O=[N+]([O-])c1cc2nc(Cl)nc(-c3ccco3)c2s1` [Example 162, 2-chloro-4-(2-furyl)-6-nitrothieno[3,2-d]pyrimidine], for which the melting point was in the range of 204 to 204.9 °C.

Consider `Clc1nc(-c2ccccn2)c2sccc2n1` [Example 24, 2-chloro-4-(2-pyridyl)thieno[3,2-d]pyrimidine], for which the melting point was in the range of 209.2 to 209.5 °C.

With `CS(=O)(=O)Nc1csc2c(-c3ccco3)nc(Cl)nc12` [Example 59, N-(2-chloro-4-(2-furyl)thieno[3,2-d]pyrimidine-7-yl)methanesulphonamide], the melting point was determined as 211.9 °C.

In turn, `CC(=O)Nc1csc2c(-c3ccco3)nc(N(C)C)nc12` [Example 56, N-(2-dimethylamino-4-(2-furyl)thieno[3,2-d]pyrimidine-7-yl)acetamide] yielded a melting point of 210.9 to 211.3 °C.

On to `Clc1nc(-c2cc3ccccc3s2)c2sccc2n1` [Example 17, 4-(2-benzothiophenyl)-2-chlorothieno[3,2-d]pyrimidine], for which the melting point lay in the range of 231 to 231.6 °C.

`c1csc(-c2nc(-c3nccs3)c3sccc3n2)c1` [Example 153, 4-(2-thiazolyl)-2-(2-thienyl)thieno[3,2-d]pyrimidine] showed a melting point of 221.9 °C.

Consider `OC[C@H]1CCCN1c1nc(-c2cccs2)c2sccc2n1` [Example 4, (2R)-2-(2-hydroxymethylpyrrolidin-1-yl)-4-(2-thienyl)thieno[3,2-d]pyrimidine], for which the melting point lay in the range of 128.5 to 128.9 °C.

In turn, `CN(C)c1nc(-c2ccnn2C)c2sccc2n1` [Example 184, N,N-dimethyl-4-(1-methyl-1H-pyrazol-5-yl)thieno[3,2-d]pyrimidine-2-amine] had a melting point of 126.5 to 127 °C.

`Cc1csc2c(-c3ccco3)nc(NCCO)nc12` [Example 16, 4-(2-furyl)-N-(2-hydroxyethyl)-7-methylthieno[3,2-d]pyrimidine-2-amine] registered a melting point of 149.9 to 150.6 °C.

Take `CN(C)c1nc(-c2ccco2)c2scc(NC(=O)c3ccccc3)c2n1` [Example 57, N-(2-dimethylamino-4-(2-furyl)thieno[3,2-d]pyrimidine-7-yl)benzamide]: the melting point was in the range of 192.2 to 192.8 °C.

Another data set has as its system Parkinsonian patients.
Assay: not given
Conditions: 15 Parkinsonian patients, up to 12 weeks, 150 mg/day; cited from earlier work.
Take `Cn1c(=O)c2[nH]cnc2n(C)c1=O` [theophylline, 1,3-dimethylxanthine]: the “mean objective disability scores” value was “significant improvements”.

Still in this data set, the particulars now being: of 15 Parkinsonian patients, up to 12 weeks, 150 mg/day; cited from earlier work.
With `Cn1c(=O)c2[nH]cnc2n(C)c1=O` [theophylline, 1,3-dimethylxanthine], the “patients reporting moderate or marked subjective improvement” value was 11.

Staying with this data set, now noted: slow release oral preparation 150 mg/day, after one week; cited from earlier work.
As to `Cn1c(=O)c2[nH]cnc2n(C)c1=O` [theophylline, 1,3-dimethylxanthine], the serum theophylline levels is on record as 4.44 mg/L.

A further data set relates to catalepsy.
Assay: not given
Conditions: in vivo; cited from earlier work.
Take `CCCn1c(=O)c2c(nc(/C=C/c3ccc(OC)c(OC)c3)n2C)n(CCC)c1=O` [KF 17837, (E)-8-(3,4-dimethoxystyryl)-1,3-dipropyl-7-methylxanthine]: the “anticataleptic effects of a subthreshold dose of L-DOPA plus benserazide” value is recorded as “potentiated”; the “catalepsy induced by haloperidol and reserpine” value is “reduced”.

The same data set, now with this note: oral administration; cited from earlier work.
As for `CCCn1c(=O)c2c(nc(/C=C/c3ccc(OC)c(OC)c3)n2C)n(CCC)c1=O` [KF 17837, (E)-8-(3,4-dimethoxystyryl)-1,3-dipropyl-7-methylxanthine], the “cataleptic responses induced by intracerebroventricular CGS 21680” value is “significantly ameliorated”.

In the next data set the target is human adenosine A2A receptors (Homo sapiens, UniProt P29274). The experiment in a line: in vitro binding to human adenosine A2A receptors, displacement of [3H]-CGS 21680. Conditions: hA2A receptors, radioligand [3H]-CGS 21680. From the text: Adenosine Receptor Binding Binding Affinities at hA2A Receptors
Sequence of human adenosine A2A receptors (P29274 whole entry): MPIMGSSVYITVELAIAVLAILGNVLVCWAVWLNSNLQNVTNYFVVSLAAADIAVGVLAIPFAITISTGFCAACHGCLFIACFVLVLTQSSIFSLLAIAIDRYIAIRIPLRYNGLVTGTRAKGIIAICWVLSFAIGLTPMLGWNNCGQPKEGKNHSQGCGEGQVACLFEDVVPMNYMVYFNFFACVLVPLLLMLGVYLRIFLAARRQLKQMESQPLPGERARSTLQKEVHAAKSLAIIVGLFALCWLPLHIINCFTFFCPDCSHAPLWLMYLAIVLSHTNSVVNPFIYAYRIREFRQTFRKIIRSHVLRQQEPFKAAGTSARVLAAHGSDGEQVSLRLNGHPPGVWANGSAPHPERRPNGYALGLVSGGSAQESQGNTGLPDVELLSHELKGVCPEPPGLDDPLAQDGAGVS
`CC(C)c1nc(-c2ccccn2)c2sccc2n1` [Example 70, 2-isopropyl-4-(2-pyridyl)thieno[3,2-d]pyrimidine] had a Ki of 4 nM.

The molecule `CC(C)(C)c1nc(-c2nccs2)c2sccc2n1` [Example 139, 2-tert-butyl-4-(2-thiazolyl)thieno[3,2-d]pyrimidine] displayed a Ki of 3 nM.

`CN(C)c1nc(-c2nccs2)c2sccc2n1` [Example 65, N,N-dimethyl-4-(2-thiazolyl)thieno[3,2-d]pyrimidine-2-amine]: the Ki is 2 nM.

`O=C(NCCNc1nc(-c2ccco2)c2sccc2n1)OCc1ccccc1` [Example 89, benzyl (2-(4-(2-furyl)thieno[3,2-d]pyrimidine-2-ylamino)ethyl)carbamate] yielded a Ki of 20 nM.

Molecule `COCCNc1nc(-c2ccco2)c2scc(Br)c2n1` [Example 71] returned a Ki of 8 nM.

As for `CCc1nc(-c2nccs2)c2sccc2n1` [Example 82, 2-ethyl-4-(2-thiazolyl)thieno[3,2-d]pyrimidine], affinity was put at a Ki of 2 nM.

In the case of `ClCCc1nc(-c2nccs2)c2sccc2n1` [Example 154, 2-(2-chloroethyl)-4-(2-thiazolyl)thieno[3,2-d]pyrimidine], the Ki amounted to 6 nM.

Regarding `OCCNc1nc(-c2ccco2)c2scc(Br)c2n1` [Example 15, 7-bromo-4-(2-furyl)-N-(2-hydroxyethyl)thieno[3,2-d]pyrimidine-2-amine], the Ki is 11 nM.

For `Cc1cnc(-c2nc(N(C)C)nc3ccsc23)s1` [Example 104, N,N-dimethyl-4-(5-methyl-2-thiazolyl)thieno[3,2-d]pyrimidine-2-amine], the Ki came out at 5 nM.

On to `Nc1nc(-c2ccco2)c2sccc2n1` [Example 79, 4-(2-furyl)thieno[3,2-d]pyrimidine-2-amine], for which affinity was put at a Ki of 14 nM.

`C=CCNc1nc(-c2ccco2)c2sccc2n1` [Example 40, N-allyl-4-(2-furyl)thieno[3,2-d]pyrimidine-2-amine] registered a Ki of 19 nM.

On to `Nc1nc(-c2nccs2)c2sccc2n1` [Example 110, 4-(2-thiazolyl)thieno[3,2-d]pyrimidine-2-amine], for which affinity was put at a Ki of 35 nM.

`Cc1nc(-c2nc(N(C)C)nc3ccsc23)sc1C` [Example 105, N,N-dimethyl-4-(4,5-dimethyl-2-thiazolyl)thieno[3,2-d]pyrimidine-2-amine] returned a Ki of 6 nM.

On to `CCc1nc(-c2nc(C)cs2)c2sccc2n1` [Example 80, 2-ethyl-4-(4-methyl-2-thiazolyl)thieno[3,2-d]pyrimidine], for which the affinity corresponds to a Ki of 1 nM.

Turning to `CC(C)c1nc(-c2nccs2)c2sccc2n1` [Example 113, 2-isopropyl-4-(2-thiazolyl)thieno[3,2-d]pyrimidine], the affinity corresponds to a Ki of 1 nM.

The term melting point denotes the temperature, or range, at which the solid turns liquid. For orientation: Ki means a dissociation constant, usually derived from enzyme kinetics or from competition with a known ligand. Lower therefore signals higher affinity.
